Tests used:
[1] = target: Rhodopsin kinase GRK7 (Homo sapiens) (UniProt Q8WTQ7); settings: Compound concentration 1000.0 nM
[2] = target: Interleukin-1 receptor-associated kinase 4 (Homo sapiens) (UniProt Q9NWZ3); settings: Compound concentration 1000.0 nM
[3] = target: Tyrosine-protein kinase JAK2 (Homo sapiens) (UniProt O60674); settings: Compound concentration 1000.0 nM
[4] = target: Sigma intracellular receptor 2 (Homo sapiens) (UniProt Q5BJF2); settings: Compound concentration 10.0 uM
[5] = target: Cyclin-dependent kinase-like 2 (Homo sapiens) (UniProt Q92772); settings: Compound concentration 1000.0 nM
[6] = target: Cyclin-dependent kinase 2 (Homo sapiens) (UniProt P24941); settings: Compound concentration 1000.0 nM
[7] = target: Dual specificity tyrosine-phosphorylation-regulated kinase 2 (Homo sapiens) (UniProt Q92630); settings: Compound concentration 1000.0 nM
[8] = target: Tyrosine-protein kinase Fgr (Homo sapiens) (UniProt P09769); settings: Compound concentration 1000.0 nM
[9] = target: Mitogen-activated protein kinase kinase kinase kinase 5 (Homo sapiens) (UniProt Q9Y4K4); settings: Compound concentration 1000.0 nM
[10] = target: Calcium/calmodulin-dependent protein kinase kinase 2 (Homo sapiens) (UniProt Q96RR4); settings: Compound concentration 1000.0 nM
Sequence of Calcium/calmodulin-dependent protein kinase kinase 2 (Homo sapiens) (Q96RR4 2-588 limits assumed): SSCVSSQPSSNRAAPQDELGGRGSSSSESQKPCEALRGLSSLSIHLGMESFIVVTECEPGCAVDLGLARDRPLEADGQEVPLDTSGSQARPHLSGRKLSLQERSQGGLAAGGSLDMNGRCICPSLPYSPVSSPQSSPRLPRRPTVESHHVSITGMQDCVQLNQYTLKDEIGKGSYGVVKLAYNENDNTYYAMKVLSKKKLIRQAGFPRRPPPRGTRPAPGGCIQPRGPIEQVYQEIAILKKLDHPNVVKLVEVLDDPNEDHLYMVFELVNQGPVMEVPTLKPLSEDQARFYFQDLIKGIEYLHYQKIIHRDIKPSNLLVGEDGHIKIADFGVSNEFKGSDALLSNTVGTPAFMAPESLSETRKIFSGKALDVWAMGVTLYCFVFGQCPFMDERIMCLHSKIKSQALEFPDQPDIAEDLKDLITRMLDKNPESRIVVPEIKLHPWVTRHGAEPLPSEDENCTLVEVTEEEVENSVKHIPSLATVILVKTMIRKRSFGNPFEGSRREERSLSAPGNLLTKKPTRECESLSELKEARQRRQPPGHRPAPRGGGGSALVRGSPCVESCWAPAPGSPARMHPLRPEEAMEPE

[11] = target: Calcium/calmodulin-dependent protein kinase kinase 1 (Homo sapiens) (UniProt Q8N5S9); settings: Compound concentration 1000.0 nM
[12] = target: Eukaryotic translation initiation factor 2-alpha kinase 1 (Homo sapiens) (UniProt Q9BQI3); settings: Compound concentration 1000.0 nM
[13] = target: Serine/threonine-protein kinase 24 (Homo sapiens) (UniProt Q9Y6E0); settings: Compound concentration 1000.0 nM
[14] = target: Testis-specific serine/threonine-protein kinase 3 (Homo sapiens) (UniProt Q96PN8); settings: Compound concentration 1000.0 nM
Sequence of Testis-specific serine/threonine-protein kinase 3 (Homo sapiens) (Q96PN8 whole entry): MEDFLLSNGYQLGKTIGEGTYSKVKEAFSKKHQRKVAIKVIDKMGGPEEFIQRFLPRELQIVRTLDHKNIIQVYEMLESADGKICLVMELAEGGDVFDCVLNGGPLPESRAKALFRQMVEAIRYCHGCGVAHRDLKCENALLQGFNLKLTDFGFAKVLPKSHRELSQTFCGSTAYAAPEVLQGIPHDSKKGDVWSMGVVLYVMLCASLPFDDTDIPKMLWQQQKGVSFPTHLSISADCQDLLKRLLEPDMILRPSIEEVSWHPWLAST

[15] = target: Serine/threonine-protein kinase 33 (Homo sapiens) (UniProt Q9BYT3); settings: Compound concentration 1000.0 nM
Sequence of Serine/threonine-protein kinase 33 (Homo sapiens) (Q9BYT3 whole entry, looked up): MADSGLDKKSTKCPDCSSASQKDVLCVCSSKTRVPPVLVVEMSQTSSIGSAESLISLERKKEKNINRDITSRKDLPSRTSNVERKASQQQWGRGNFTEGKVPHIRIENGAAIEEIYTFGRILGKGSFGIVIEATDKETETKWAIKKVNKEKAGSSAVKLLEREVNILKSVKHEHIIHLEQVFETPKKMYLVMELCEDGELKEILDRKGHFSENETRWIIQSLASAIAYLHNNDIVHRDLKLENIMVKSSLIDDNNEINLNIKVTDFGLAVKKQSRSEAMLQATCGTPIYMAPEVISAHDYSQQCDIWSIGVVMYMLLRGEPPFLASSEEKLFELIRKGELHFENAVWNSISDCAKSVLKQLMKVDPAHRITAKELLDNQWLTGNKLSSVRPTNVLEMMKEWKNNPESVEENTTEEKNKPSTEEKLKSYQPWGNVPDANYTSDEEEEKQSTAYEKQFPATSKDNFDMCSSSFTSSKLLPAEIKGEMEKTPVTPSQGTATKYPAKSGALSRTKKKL

[16] = target: Glutamate [NMDA] receptor (Homo sapiens) (UniProt Q05586+Q12879+Q13224+O15399+O60391+Q14957+Q8TCU5); assay: NMDA CEREP ligand profiling; assay type: protein-complex assay; settings: Compound concentration 10.0 uM
[17] = target: Urotensin-2 receptor (Homo sapiens) (UniProt Q9UKP6); assay: UT (h) CEREP ligand profiling; settings: Compound concentration 10.0 uM
[18] = target: Serine/threonine-protein kinase/endoribonuclease IRE1 (Homo sapiens) (UniProt O75460); settings: Compound concentration 1000.0 nM
Histamine H4 receptor = Histamine H4 receptor (Homo sapiens, UniProt Q9H3N8); assay: H4 (h) CEREP ligand profiling; settings: Compound concentration 10.0 uM
[19] = target: Serine/threonine-protein kinase Nek4 (Homo sapiens) (UniProt P51957); settings: Compound concentration 1000.0 nM
Sequence of Serine/threonine-protein kinase Nek4 (Homo sapiens) (P51957 whole entry, looked up): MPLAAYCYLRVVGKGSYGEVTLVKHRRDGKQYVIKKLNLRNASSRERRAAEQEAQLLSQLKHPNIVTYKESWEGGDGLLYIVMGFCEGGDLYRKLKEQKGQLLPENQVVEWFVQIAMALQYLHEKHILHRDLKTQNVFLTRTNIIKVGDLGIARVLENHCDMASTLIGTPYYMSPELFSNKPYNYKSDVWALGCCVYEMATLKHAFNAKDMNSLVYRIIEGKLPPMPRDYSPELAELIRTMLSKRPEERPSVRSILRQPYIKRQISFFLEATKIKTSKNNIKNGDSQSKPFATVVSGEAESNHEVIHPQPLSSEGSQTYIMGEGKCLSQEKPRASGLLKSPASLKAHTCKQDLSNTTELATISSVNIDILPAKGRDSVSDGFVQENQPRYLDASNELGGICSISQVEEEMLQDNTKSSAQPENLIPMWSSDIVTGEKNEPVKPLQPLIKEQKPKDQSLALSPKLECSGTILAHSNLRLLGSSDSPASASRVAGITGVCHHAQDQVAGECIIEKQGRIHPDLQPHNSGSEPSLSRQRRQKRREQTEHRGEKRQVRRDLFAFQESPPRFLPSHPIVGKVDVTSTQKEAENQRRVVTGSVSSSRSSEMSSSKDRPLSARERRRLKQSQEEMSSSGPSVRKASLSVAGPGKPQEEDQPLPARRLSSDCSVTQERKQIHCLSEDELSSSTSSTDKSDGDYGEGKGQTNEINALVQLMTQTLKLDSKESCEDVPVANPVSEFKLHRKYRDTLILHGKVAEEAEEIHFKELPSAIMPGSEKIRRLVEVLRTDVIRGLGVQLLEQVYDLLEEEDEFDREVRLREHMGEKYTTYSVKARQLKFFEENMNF

[20] = test system: Hepatocyte growth factor receptor (Homo sapiens), P08581 [Y1235D]; settings: Compound concentration 1000.0 nM
[21] = target: Insulin receptor-related protein (Homo sapiens) (UniProt P14616); settings: Compound concentration 1000.0 nM
[22] = target: MAO-A (Amine oxidase [flavin-containing] A) (Homo sapiens, UniProt P21397); assay: MAO-A CEREP ligand profiling; settings: compound concentration 10 uM
[23] = target: Cyclin-dependent kinase 3 (Homo sapiens) (UniProt Q00526); settings: Compound concentration 1000.0 nM
Sequence of Cyclin-dependent kinase 3 (Homo sapiens) (Q00526 whole entry, looked up): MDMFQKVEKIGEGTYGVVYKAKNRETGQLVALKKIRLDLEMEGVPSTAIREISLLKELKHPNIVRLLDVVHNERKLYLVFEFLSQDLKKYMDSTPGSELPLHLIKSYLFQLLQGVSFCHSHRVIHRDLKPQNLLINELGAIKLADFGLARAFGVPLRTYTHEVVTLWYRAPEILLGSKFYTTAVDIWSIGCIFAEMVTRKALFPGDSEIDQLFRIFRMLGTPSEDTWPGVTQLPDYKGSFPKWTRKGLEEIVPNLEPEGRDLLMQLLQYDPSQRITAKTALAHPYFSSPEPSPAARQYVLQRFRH

[24] = target: Mitogen-activated protein kinase kinase kinase 11 (Homo sapiens) (UniProt Q16584); settings: Compound concentration 1000.0 nM
[25] = target: Serine/threonine-protein kinase BRSK1 (Homo sapiens) (UniProt Q8TDC3); settings: Compound concentration 1000.0 nM
[26] = target: Cyclin-dependent kinase 18 (Homo sapiens) (UniProt Q07002); settings: Compound concentration 1000.0 nM
[27] = target: MAP kinase-interacting serine/threonine-protein kinase 2 (Homo sapiens) (UniProt Q9HBH9); settings: Compound concentration 1000.0 nM
Sequence of MAP kinase-interacting serine/threonine-protein kinase 2 (Homo sapiens) (Q9HBH9 whole entry, looked up): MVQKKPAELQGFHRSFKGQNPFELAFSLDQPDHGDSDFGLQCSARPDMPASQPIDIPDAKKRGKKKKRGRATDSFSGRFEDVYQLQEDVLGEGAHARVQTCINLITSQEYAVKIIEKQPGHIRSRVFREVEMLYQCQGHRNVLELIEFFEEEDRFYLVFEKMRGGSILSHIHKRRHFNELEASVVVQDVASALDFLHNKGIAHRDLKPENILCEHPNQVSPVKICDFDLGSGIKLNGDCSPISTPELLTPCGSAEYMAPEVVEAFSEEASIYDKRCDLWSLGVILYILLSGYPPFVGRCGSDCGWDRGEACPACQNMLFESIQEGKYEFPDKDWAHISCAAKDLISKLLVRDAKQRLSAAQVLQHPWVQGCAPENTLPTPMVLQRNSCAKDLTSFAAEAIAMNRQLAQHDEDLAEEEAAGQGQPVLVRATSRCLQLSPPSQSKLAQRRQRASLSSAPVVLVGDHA

[28] = target: Cyclin-dependent kinase-like 5 (Homo sapiens) (UniProt O76039); settings: Compound concentration 1000.0 nM
[29] = target: Mitogen-activated protein kinase 14 (Homo sapiens) (UniProt Q16539); assay: p38 alpha kinase (h) CEREP ligand profiling; settings: Compound concentration 10.0 uM
[30] = target: Tumor necrosis factor (Homo sapiens) (UniProt P01375); assay: TNF-alpha (h) CEREP ligand profiling; settings: Compound concentration 10.0 uM
[31] = target: Muscarinic acetylcholine receptor M3 (Homo sapiens) (UniProt P20309); assay: M3 (h) CEREP ligand profiling; settings: Compound concentration 10.0 uM
[32] = target: Cyclin-dependent kinase 19 (Homo sapiens) (UniProt Q9BWU1); settings: Compound concentration 1000.0 nM
Sequence of Cyclin-dependent kinase 19 (Homo sapiens) (Q9BWU1 whole entry): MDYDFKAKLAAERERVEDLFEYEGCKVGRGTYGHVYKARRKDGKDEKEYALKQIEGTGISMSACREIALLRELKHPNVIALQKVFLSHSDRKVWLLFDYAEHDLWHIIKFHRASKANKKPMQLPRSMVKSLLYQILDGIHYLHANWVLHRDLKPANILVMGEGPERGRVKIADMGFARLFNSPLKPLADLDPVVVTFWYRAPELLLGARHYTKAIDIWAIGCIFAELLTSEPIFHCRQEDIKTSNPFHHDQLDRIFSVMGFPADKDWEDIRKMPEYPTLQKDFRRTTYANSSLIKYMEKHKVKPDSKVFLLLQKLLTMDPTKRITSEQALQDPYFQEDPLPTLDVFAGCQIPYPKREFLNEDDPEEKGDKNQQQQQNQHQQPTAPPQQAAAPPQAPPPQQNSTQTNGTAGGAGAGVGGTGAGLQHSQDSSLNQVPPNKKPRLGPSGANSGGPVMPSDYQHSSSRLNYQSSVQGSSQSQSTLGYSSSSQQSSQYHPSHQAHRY

[33] = target: Phosphodiesterase 4 (Rattus norvegicus) (UniProt P14270+P14646+P14644+P54748); assay: Rolipram CEREP ligand profiling; assay type: protein assay; settings: Compound concentration 10.0 uM
[34] = target: Mitogen-activated protein kinase 6 (Homo sapiens) (UniProt Q16659); settings: Compound concentration 1000.0 nM
[35] = target: Muscle, skeletal receptor tyrosine-protein kinase (Homo sapiens) (UniProt O15146); settings: Compound concentration 1000.0 nM
[36] = target: Cholecystokinin receptor type A (Homo sapiens) (UniProt P32238); assay: CCKA (h) (CCK1) CEREP ligand profiling; settings: Compound concentration 10.0 uM
[37] = target: Glucocorticoid receptor (Homo sapiens) (UniProt P04150); assay: GR (h) CEREP ligand profiling; settings: Compound concentration 10.0 uM
[38] = target: GABA-A receptor; anion channel (Homo sapiens) (UniProt P14867+P47870+P18507+P28472+P48169+Q99928+Q9UN88+P34903+O00591+O14764+Q8N1C3+P18505+P78334+P47869+P31644+Q16445); assay: Cl- channel CEREP ligand profiling; assay type: protein-complex assay; settings: Compound concentration 10.0 uM
[39] = target: Mitogen-activated protein kinase 15 (Homo sapiens) (UniProt Q8TD08); settings: Compound concentration 1000.0 nM
[40] = target: Dual specificity mitogen-activated protein kinase kinase 7 (Homo sapiens) (UniProt O14733); settings: Compound concentration 1000.0 nM
[41] = target: D(3) dopamine receptor (Homo sapiens) (UniProt P35462); assay: D3 (h) CEREP ligand profiling; settings: Compound concentration 10.0 uM
Sequence of D(3) dopamine receptor (Homo sapiens) (P35462 whole entry): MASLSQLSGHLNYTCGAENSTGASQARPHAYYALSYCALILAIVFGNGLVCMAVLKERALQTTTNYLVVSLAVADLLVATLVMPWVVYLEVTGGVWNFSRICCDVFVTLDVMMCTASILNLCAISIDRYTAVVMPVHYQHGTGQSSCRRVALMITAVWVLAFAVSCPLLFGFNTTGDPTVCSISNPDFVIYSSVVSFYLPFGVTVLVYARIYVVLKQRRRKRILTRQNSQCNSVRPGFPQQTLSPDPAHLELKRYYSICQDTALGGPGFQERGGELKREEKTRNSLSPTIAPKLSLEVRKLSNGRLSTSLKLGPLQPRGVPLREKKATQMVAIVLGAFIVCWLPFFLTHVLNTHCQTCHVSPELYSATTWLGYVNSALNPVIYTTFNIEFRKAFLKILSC

[42] = target: Adenosine receptor A1 (Homo sapiens) (UniProt P30542); assay: A1 (h) CEREP ligand profiling; settings: Compound concentration 10.0 uM
[43] = target: Mitogen-activated protein kinase kinase kinase 5 (Homo sapiens) (UniProt Q99683); settings: Compound concentration 1000.0 nM

Sequence of Tyrosine-protein kinase JAK2 (Homo sapiens) (O60674 whole entry): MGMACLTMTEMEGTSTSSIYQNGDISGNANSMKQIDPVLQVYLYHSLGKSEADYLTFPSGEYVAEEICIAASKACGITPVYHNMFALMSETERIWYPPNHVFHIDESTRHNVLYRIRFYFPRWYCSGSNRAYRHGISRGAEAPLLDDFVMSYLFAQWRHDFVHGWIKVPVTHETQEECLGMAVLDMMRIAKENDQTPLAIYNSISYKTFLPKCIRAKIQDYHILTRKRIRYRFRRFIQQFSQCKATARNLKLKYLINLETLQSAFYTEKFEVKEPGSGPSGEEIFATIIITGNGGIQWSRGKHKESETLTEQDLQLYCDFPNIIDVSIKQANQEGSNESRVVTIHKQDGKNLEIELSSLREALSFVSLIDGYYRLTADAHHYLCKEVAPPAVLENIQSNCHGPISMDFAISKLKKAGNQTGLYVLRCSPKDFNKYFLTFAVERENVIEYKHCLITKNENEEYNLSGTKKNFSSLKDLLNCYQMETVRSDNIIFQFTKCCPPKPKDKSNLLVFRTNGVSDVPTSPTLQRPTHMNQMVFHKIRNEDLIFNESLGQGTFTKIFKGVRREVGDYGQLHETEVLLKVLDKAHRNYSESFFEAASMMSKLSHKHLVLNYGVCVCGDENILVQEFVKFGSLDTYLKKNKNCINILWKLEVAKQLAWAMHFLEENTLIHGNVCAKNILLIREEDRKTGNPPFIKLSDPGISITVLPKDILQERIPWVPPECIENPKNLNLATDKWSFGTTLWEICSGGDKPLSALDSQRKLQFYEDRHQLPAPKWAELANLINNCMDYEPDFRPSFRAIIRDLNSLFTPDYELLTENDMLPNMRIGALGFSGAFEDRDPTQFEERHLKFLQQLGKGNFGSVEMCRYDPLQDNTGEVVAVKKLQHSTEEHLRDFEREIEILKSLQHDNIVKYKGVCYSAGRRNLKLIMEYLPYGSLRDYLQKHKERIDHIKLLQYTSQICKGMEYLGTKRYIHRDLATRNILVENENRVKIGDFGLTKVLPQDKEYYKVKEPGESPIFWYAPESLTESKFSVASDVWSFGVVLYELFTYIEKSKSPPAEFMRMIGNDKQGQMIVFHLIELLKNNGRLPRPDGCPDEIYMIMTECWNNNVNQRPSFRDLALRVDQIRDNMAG

`COc1ccc2cc(OCC3(C(=O)O)CN(C(=O)c4ccc(F)cc4)C3)ccc2c1` [PF-04418948] gave a residual activity [1] of 93%, a residual activity [2] of 87% and a residual activity [3] of 89%. The inhibition [4] was -1.29%, the residual activity [5] was 89% and the residual activity [6] was 91%. The residual activity [7] was 84%, the residual activity [8] was 96% and the residual activity [9] was 86%. For the same molecule, the residual activity [10] was 94%, the residual activity [11] was 91% and the residual activity [12] was 94%. The residual activity [13] was 85%, the residual activity [14] was 82% and the residual activity [15] was 98%. The inhibition [16] was 1%, the inhibition [17] was 14% and the residual activity [18] was 80%. The inhibition (Histamine H4 receptor) was -4%, the residual activity [19] was 94% and the residual activity [20] was 91%. The residual activity [21] was 67%, the inhibition at 10 µM [22] was 3% (not active) and the residual activity [23] was 83%. It also gave a residual activity [24] of 79%, a residual activity [25] of 85% and a residual activity [26] of 98%. For the same molecule, the residual activity [27] was 96%, the residual activity [28] was 97% and the inhibition [29] was -1%. For the same molecule, the inhibition [30] was -1%, the inhibition [31] was 1% and the residual activity [32] was 95%. For the same molecule, the inhibition [33] was 3%, the residual activity [34] was 88% and the residual activity [35] was 72%. It also gave an inhibition [36] of 29%, an inhibition [37] of -1% and an inhibition [38] of 19%. For the same molecule, the residual activity [39] was 74%, the residual activity [40] was 79% and the inhibition [41] was 1%. For the same molecule, the inhibition [42] was -2% and the residual activity [43] was 98%.
